Results on 10 molecules are retold here after patent publication US20170112896A1, “SMALL MOLECULE RAC OR RHO INHIBITORS” (Ohio State Innovation Foundation, priority 2014, published 2017).

One data set has as its target T1, K-Ras(G12V) (Homo sapiens, UniProt P01116, G12V).
T1 construct: The G12V mutant K-Ras (amino acids 1-185) was recombinantly fused to glutathione 5-transferase (GST) at its N-terminus; GST (N, cleaved yes); made in house; host or cells: Escherichia coli BL21
As to the kind of experiment: Fluorescence anisotropy (FA) binding of FITC-labeled cyclic peptides to K-Ras. The note with it: Table 1, resynthesized FITC-labeled library hits, read-out: KD (μM), affinity for K-Ras. On the technique in general: Polarisation of emitted light reports the rotation of a fluorescent probe.

The target of data set [1] is T2, Ras(G12V)-Raf RBD interaction (Homo sapiens, UniProt P01116, G12V).
T2 construct: The G12V mutant K-Ras (amino acids 1-185) was recombinantly fused to glutathione 5-transferase (GST) at its N-terminus; GST (N, cleaved yes); made in house; host or cells: Escherichia coli BL21
T2 sequence (P01116 1-185 isoform P01116-2 G12V): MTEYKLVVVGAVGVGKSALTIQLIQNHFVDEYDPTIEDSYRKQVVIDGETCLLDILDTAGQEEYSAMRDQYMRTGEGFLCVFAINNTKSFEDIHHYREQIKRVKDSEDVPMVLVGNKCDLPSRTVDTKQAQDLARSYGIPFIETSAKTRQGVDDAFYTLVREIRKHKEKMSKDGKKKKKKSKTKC
As to the kind of experiment: HTRF assay, inhibition of Ras-Raf RBD interaction. Type of data set: binding. The note with it: for increase of Ras binding affinity by substitution: relative to parent 9A5/9A6. (In TR-FRET formats the signal depends on donor and acceptor labels being close together.)
Protocol: Recombinant HA-tagged K-Ras (no GST, 50 nM), GST-Raf RBD (50 nM each), a monoclonal anti-HA antibody labeled with acceptor d2 (2 μg/mL), a monoclonal anti-GST antibody labeled with donor Tb (0.25 μg/mL) (Cisbio), and increasing concentrations of cyclic peptide (0-20 μM) were mixed in PBS (total volume of 20 μL) in a 384-well plate. The plate was incubated overnight at 4° C. and the HTRF signal was measured on a Molecular Devices Spectramax M5 or a Tecan infinite M1000 Pro plate reader. The data were analyzed by Prism 6.0 from Graphpad Software, Inc. (La Jolla, Calif.) and IC50 values were obtained by fitting the data to dose-response-inhibition curve.

The next data set deals with H1299 lung cancer cells. It counts as cell-based. Conditions: for IC50: 72 h; for anti-proliferative activity against lung cancer cells (in words): MTT assay. As for the experimental part:
MTT assays (Mosmann, T. (1983) J. Immunol. Methods 65:55) were performed with H1299 lung cancer cells. One hundred μL of H1299 cells (0.5×10^5 cells/mL) were seeded in each well of a 96-well culture plate and allowed to grow overnight in Advanced RPMI medium supplemented with 10% fetal bovine serum (FBS) and 1% penicillin-streptomycin. Varying concentrations of cyclic peptide (0-25 μM) were added to the each well and the cells were incubated at 37° C. with 5% CO2 for 72 hours. Ten μL of a MTT stock solution (Roche) was added into each well. The plate was incubated at 37° C. for 4 h. Then 100 μL of SDS-HCl solubilizing buffer was added into each well, and the resulting solution was mixed thoroughly. The plate was incubated at 37° C. overnight. The absorbance of the formazan product was measured at 570 nm using a Molecular Devices Spectramax M5 plate reader. Each experiment was performed in triplicates and the cells without any peptide added were treated as control.
Background: Tetrazolium dyes change colour on reduction, which living cells bring about.

For the next data set, the target named is T3, H-Ras(WT) (Homo sapiens, UniProt P01112).
T3 construct: purchased Origene (Rockville, Md.)
T3 sequence (P01112 whole entry): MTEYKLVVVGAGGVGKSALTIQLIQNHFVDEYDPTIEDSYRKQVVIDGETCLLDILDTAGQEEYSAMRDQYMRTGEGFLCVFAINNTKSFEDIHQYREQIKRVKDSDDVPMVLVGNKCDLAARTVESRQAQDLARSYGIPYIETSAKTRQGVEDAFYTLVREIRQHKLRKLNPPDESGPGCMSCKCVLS
The experiment in a line: FA binding of FITC-9A5 to H-Ras. The note with it: FITC-labeled peptide. The source says:
(§1) Reagents for peptide synthesis were purchased from Peptides International (Louisville, Ky.), NovaBiochem (La Jolla, Calif.), Anaspec (San Jose, Calif.), Chem-Impex International Inc. (Wood Dale, Ill.), or Aapptec (Lousiville, Ky.). N-Hydroxysuccinimidyl biotin was purchased from Chem-Impex International (Wood Dale, Ill.) and N-(9-fluorenylmethoxycarbonyloxy)succinimide (Fmoc-OSu) from Advanced ChemTech. Phenyl isothiocyanate (PITC), isopropyl13-D-1-thiogalactopyranoside (IPTG), protease inhibitor cocktail tablets, ampicillin and kanamycin were purchased from Sigma-Aldrich. Cell proliferation kit (MTT) was purchased from Roche (Indianapolis, Ind.). Cell culture media, fetal bovine serum, penicillin-streptomycin, 0.25% trypsin-EDTA, DPBS (2.67 mM potassium chloride, 1.47 mM potassium phosphate monobasic, 137 mM sodium chloride, 8.06 mM sodium phosphate dibasic), streptavidin-coated Dynabeads M-280, Texas red N-hydroxysuccinimide ester, and tetramethylrhodamine (TMR) azide were purchased from Invitrogen (Carlsbad, Calif.). Anti-GST-Tb and Anti-HA d2 antibodies were purchased from Cisbio (Bedford, Mass.). Recombinant K-Ras WT, H-Ras WT, Rac1, RhoA and CDC42 were purchased from Origene (Rockville, Md.). Solvents and other chemical reagents were purchased from Sigma-Aldrich or VWR (West Chester, Pa.).

For a further data set, the target named is T4, bovine serum albumin (Bos taurus, UniProt P02769).
T4 construct: from tissue; host or cells: bovine serum (from the name only)
T4 sequence (P02769 25-607): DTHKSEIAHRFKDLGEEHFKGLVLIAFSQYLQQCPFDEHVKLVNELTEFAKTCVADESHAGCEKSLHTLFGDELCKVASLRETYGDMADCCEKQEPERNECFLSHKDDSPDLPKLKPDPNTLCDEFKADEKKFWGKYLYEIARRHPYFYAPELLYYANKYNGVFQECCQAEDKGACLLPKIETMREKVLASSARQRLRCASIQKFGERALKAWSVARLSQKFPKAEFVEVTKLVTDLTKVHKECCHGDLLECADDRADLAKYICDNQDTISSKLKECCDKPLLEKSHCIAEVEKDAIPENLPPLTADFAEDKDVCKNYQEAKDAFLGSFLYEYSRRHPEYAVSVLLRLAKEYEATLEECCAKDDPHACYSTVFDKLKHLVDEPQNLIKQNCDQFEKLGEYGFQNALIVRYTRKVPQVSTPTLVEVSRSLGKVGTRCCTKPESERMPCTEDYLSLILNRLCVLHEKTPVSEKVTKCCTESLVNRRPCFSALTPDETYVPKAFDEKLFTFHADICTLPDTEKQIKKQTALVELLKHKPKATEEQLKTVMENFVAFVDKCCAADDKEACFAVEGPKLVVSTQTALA
As to the kind of experiment: FA binding of FITC-9A5 to control protein BSA.

The target of a further data set is T5, Rac1 (Homo sapiens, UniProt P63000).
T5 construct: purchased Origene (Rockville, Md.)
The experiment in a line: FA binding of FITC-9A5 to recombinant Rac1.
Text: as §1

The target of the next data set is T6, RhoA (Homo sapiens, UniProt P61586).
T6 construct: purchased Origene (Rockville, Md.)
T6 sequence (P61586 whole entry): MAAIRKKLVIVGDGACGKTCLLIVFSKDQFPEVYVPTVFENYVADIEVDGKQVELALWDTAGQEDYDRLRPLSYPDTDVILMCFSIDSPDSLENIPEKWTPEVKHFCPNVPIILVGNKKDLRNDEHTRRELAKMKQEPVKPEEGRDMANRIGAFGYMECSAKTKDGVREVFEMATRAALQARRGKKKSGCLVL
The experiment in a line: FA binding of FITC-9A5 to recombinant RhoA.
Text: as §1

Another data set deals with Ras-GTP (Homo sapiens, UniProt P01116, G12V). As to the kind of experiment: biochemical.
Sequence of Ras-GTP (P01116 1-185 isoform P01116-2 G12V): as the sequence (P01116 1-185 isoform P01116-2 G12V) above
In another data set the target is Ras-GPPNP (Homo sapiens, UniProt P01116, G12V). The experiment in a line: biochemical.
Sequence of Ras-GPPNP (P01116 1-185 isoform P01116-2 G12V): as above
The target of the next data set is Ras-GDP (Homo sapiens, UniProt P01116, G12V). The experiment in a line: biochemical.
Sequence of Ras-GDP (P01116 1-185 isoform P01116-2 G12V): as above

The structures appear in SMILES notation. “And” between values parts separate entries of the source, which are not always exact repeats. Equal entries are not always repeated. Square brackets hold non-standard residues; d marks the D form. Peptide text beside a SMILES is read from it. * marks the point of attachment. Lys(5-FITC)NH2 = NC(=O)[C@H](CCCCNC(=S)Nc1ccc2c(c1)C(=O)OC21c2ccc(O)cc2Oc2cc(O)ccc21)N*; FITC = O=C1OC2(c3ccc(O)cc3Oc3cc(O)ccc32)c2ccc(NC(=S)*)cc21; Phe(3,4-F2) = N[C@@H](Cc1ccc(F)c(F)c1)C(=O)O; Phe(4-F) = N[C@@H](Cc1ccc(F)cc1)C(=O)O; d2Nal = N[C@H](Cc1ccc2ccccc2c1)C(=O)O; NMeL = CN[C@@H](CC(C)C)C(=O)O; Tle = CC(C)(C)[C@H](N)C(=O)O; dNle = CCCC[C@@H](N)C(=O)O; Abu = CC[C@H](N)C(=O)O

T1 sequence (P01116 1-185 isoform P01116-2 G12V): as above
Protocol for K-Ras(G12V): The cells were grown at 37° C. in Luria broth supplemented with 0.05 mg/mL kanamycin to an OD600 of 0.6 when protein expression was induced by addition of IPTG for a final concentration of 1 mM. After 5 h of incubation at 30° C., the cells were harvested by centrifugation. The cell pellets were lysed by sonication in a lysis buffer (40 mM Tris-HCl, 150 mM NaCl, 0.5% Triton X-100, 5 mM (3-mercaptoethanol, pH 8.0) containing a protease inhibitor cocktail tablets (Sigma). The crude cell lysate was loaded onto a glutathione-Sepharose 4B column (GE Healthcare) and the bound GST-K-Ras was eluted with an elution buffer (50 mM Tris, pH 8.0, 10 mM glutathione). After buffer exchange into PBS, the protein was quickly frozen and stored at −80° C. To generate K-Ras without the GST tag, the GST-K-Ras protein (2 mg in PBS) was treated with 20 units of thrombin (GE Healthcare) for 16 h at 4° C. The reaction mixture was passed through a glutathione-Sepharose 4B column to remove the released GST and the resulting K-Ras protein was stored at −80° C.
(§2) For cyclic peptides derived from single library beads (library screening), K-Ras protein (non-GST fusion, 0-20 μM) was incubated with the TMR-labeled peptide (50 or 100 nM) in 20 μL, of the blocking buffer for 2.5 h at 24° C. The FA values were measured on a Molecular Devices Spectramax M5 spectrofluorimeter, with excitation and emission wavelengths at 545 and 585 nm, respectively. Equilibrium dissociation constants (KD) were determined by plotting the FA values as a function of K-Ras concentration and fitting the data to the equation
(§3) where Y is the measured anisotropy at a given K-Ras concentration x; L is the peptide concentration; Qb/Qf is the correction fact for dye-protein interaction; Amax is the maximum anisotropy at saturating K-Ras concentration; and Amin is the minimum anisotropy. FA analyses with resynthesized FITC-labeled peptides were similarly carried oμL, except that the excitation and emission wavelengths were at 494 and 520 nm, respectively.
Protocol for Ras-GDP: (§4) To prepare Ras-GTP, purified K-Ras was incubated with 20 mM EDTA plus 2 mM GTP in PBS overnight at 4° C. After addition of 40 mM of MgCl2, the protein was dialyzed against PBS.
as §2
(§5) FA analyses with resynthesized FITC-labeled peptides were similarly carried oμL, except that the excitation and emission wavelengths were at 494 and 520 nm, respectively.
Protocol for Ras-GPPNP: as §4, §2, §5
Protocol for Ras-GTP: as §4, §2, §5
Protocol for bovine serum albumin: The FA values were measured on a Molecular Devices Spectramax M5 spectrofluorimeter, with excitation and emission wavelengths at 545 and 585 nm, respectively. Equilibrium dissociation constants (KD) were determined by plotting the FA values as a function of K-Ras concentration and fitting the data to the equation
as §3

Broadly, the Kd is a measure of binding affinity in units of concentration. Take `CC(C)C[C@H]1C(=O)N[C@@H](CCC(=O)N[C@@H](CCCCNC(=S)Nc2ccc3c(c2)C(=O)OC32c3ccc(O)cc3Oc3cc(O)ccc32)C(N)=O)C(=O)N[C@@H](CCCNC(=N)N)C(=O)N[C@@H](CCCNC(=N)N)C(=O)N[C@H](Cc2ccc3ccccc3c2)C(=O)N[C@@H](CCCNC(=N)N)C(=O)N[C@@H](Cc2ccc(F)cc2)C(=O)N[C@H](CC(N)=O)C(=O)N[C@H](Cc2ccc3ccccc3c2)C(=O)N1C` [Cyclorasin 3A] (cyclo(E(Lys(5-FITC)NH2)RR[d2Nal]R[Phe(4-F)][dN][d2Nal][NMeL])): the dissociation constant (Kd) at K-Ras(G12V) amounted to 0.91 ± 0.23 µM.
Regarding `CC(C)[C@H]1NC(=O)[C@H](Cc2ccc(O)cc2)NC(=O)[C@H](CCCNC(=N)N)NC(=O)[C@H](Cc2ccc(F)cc2)NC(=O)[C@H](CCCNC(=N)N)NC(=O)[C@@H](Cc2ccc3ccccc3c2)NC(=O)[C@H](CCCNC(=N)N)NC(=O)[C@H](CCCNC(=N)N)NC(=O)[C@H](CCC(=O)N[C@@H](CCCCNC(=S)Nc2ccc3c(c2)C(=O)OC32c3ccc(O)cc3Oc3cc(O)ccc32)C(N)=O)NC(=O)[C@H](Cc2ccc(F)cc2)NC1=O` [Cyclorasin 7A] (cyclo(E(Lys(5-FITC)NH2)RR[d2Nal]R[Phe(4-F)]RY[dV][Phe(4-F)])), at K-Ras(G12V), the Kd was found to be 0.88 ± 0.27 µM.
`CCCC[C@H]1NC(=O)[C@H](Cc2ccc(F)cc2)NC(=O)[C@H](CCCNC(=N)N)NC(=O)[C@@H](Cc2ccc3ccccc3c2)NC(=O)[C@H](CCCNC(=N)N)NC(=O)[C@H](CCCNC(=N)N)NC(=O)[C@@H](CCCNC(=N)N)NC(=O)[C@@H](C)NC(=O)[C@H]([C@@H](C)O)NC(=O)[C@H](Cc2c[nH]c3ccccc23)NC(=O)[C@H](CCC(N)=O)NC1=O` [Cyclorasin 9A6] (cyclo(WT[dA][dR]RR[d2Nal]R[Phe(4-F)][dNle]Q)): in [1] (relative to 9A1), the “higher potency than 9A1 against K-Ras” value amounted to 3 fold. In addition, in the data set on A549 lung cancer cells, the “cell permeability / intracellular fluorescence” value is recorded as “improved cell permeability”.
The IC50 is the concentration that gives 50% inhibition. High values mean weaker potency in that assay, low ones greater potency in that assay. As to `CCCC[C@H]1NC(=O)[C@H](Cc2ccc(F)cc2)NC(=O)[C@H](CCCNC(=N)N)NC(=O)[C@@H](Cc2ccc3ccccc3c2)NC(=O)[C@H](CCCNC(=N)N)NC(=O)[C@H](CCCNC(=N)N)NC(=O)[C@@H](CCCNC(=N)N)NC(=O)[C@@H](C)NC(=O)[C@H](C(C)(C)C)NC(=O)[C@H](Cc2c[nH]c3ccccc23)NC(=O)[C@H](CCC(N)=O)NC1=O` [Cyclorasin 9A16] (cyclo(W[Tle][dA][dR]RR[d2Nal]R[Phe(4-F)][dNle]Q)), the “increase of Ras binding affinity by substitution” value (shortened to “increase of Ras binding affinity”) in [1] was determined as 2 fold. The molecule further had a concentration for half-maximal inhibition (IC50) in the data set on H1299 lung cancer cells of 3500 ± 600 nM.
As for `CCCC[C@H]1NC(=O)[C@H](Cc2ccc(F)c(F)c2)NC(=O)[C@H](CCCNC(=N)N)NC(=O)[C@@H](Cc2ccc3ccccc3c2)NC(=O)[C@H](CCCNC(=N)N)NC(=O)[C@H](CCCNC(=N)N)NC(=O)[C@H](CCCNC(=N)N)NC(=O)[C@@H](C)NC(=O)[C@H]([C@@H](C)O)NC(=O)[C@H](Cc2c[nH]c3ccccc23)NC(=O)[C@H](CCC(N)=O)NC1=O` [Cyclorasin 9A43] (cyclo(WT[dA]RRR[d2Nal]R[Phe(3,4-F2)][dNle]Q)), the “increase of Ras binding affinity” value in [1] amounted to 2 fold. In addition, half-maximal inhibition in the data set on H1299 lung cancer cells (IC50) was put at 6900 ± 800 nM.
For `C[C@H]1NC(=O)[C@H]([C@@H](C)O)NC(=O)[C@H](Cc2c[nH]c3ccccc23)NC(=O)[C@H](CCC(N)=O)NC(=O)[C@@H](CCCNC(=N)N)NC(=O)[C@H](Cc2ccc(F)cc2)NC(=O)[C@H](CCCNC(=N)N)NC(=O)[C@@H](Cc2ccc3ccccc3c2)NC(=O)[C@H](CCCNC(=N)N)NC(=O)[C@H](CCCNC(=N)N)NC(=O)[C@H](CCCNC(=N)N)NC1=O` [Cyclorasin 9A45] (cyclo(WT[dA]RRR[d2Nal]R[Phe(4-F)][dR]Q)), the “increase of Ras binding affinity” value in [1] was found to be 4 fold. In the data set on H1299 lung cancer cells, the midpoint of inhibition, the IC50, lay at 8900 ± 2100 nM.
Take `CCCC[C@H]1NC(=O)[C@H](Cc2ccc(F)cc2)NC(=O)[C@H](CCCNC(=N)N)NC(=O)[C@@H](Cc2ccc3ccccc3c2)NC(=O)[C@H](CCCNC(=N)N)NC(=O)[C@H](CCCNC(=N)N)NC(=O)[C@H](CCC(=O)N[C@@H](CCCCNC(=S)Nc2ccc3c(c2)C(=O)OC32c3ccc(O)cc3Oc3cc(O)ccc32)C(N)=O)NC(=O)[C@@H](C)NC(=O)[C@H]([C@@H](C)O)NC(=O)[C@H](Cc2c[nH]c3ccccc23)NC(=O)[C@@H](CO)NC1=O` [Cyclorasin 9A, (Arg-Arg-nal-Arg-Fpa-nle-ser-Trp-Thr-ala-Gln)] (cyclo(RR[d2Nal]R[Phe(4-F)][dNle][dS]WT[dA]E(Lys(5-FITC)NH2))): in the data set with H1299 lung cancer cells, the IC50 was 18000 ± 4000 nM and the “anti-proliferative activity against lung cancer cells (in words)” value is recorded as “weak anti-proliferative activity”. Further, the “cell permeability / intracellular fluorescence” value in the data set on A549 lung cancer cells is “cell permeable”.
As to `C[C@H]1NC(=O)[C@H](CCCNC(=N)N)NC(=O)[C@H](Cc2c[nH]c3ccccc23)NC(=O)[C@H](CCCNC(=N)N)NC(=O)[C@H](Cc2ccc(F)cc2)NC(=O)[C@H](CCCNC(=N)N)NC(=O)[C@@H](Cc2ccc3ccccc3c2)NC(=O)[C@H](CCCNC(=N)N)NC(=O)[C@H](CCCNC(=N)N)NC(=O)[C@H](CCC(N)=O)NC1=O` [Cyclorasin 12A, (Arg-Arg-nal-Arg-Fpa-Arg-Trp-Arg-ala-Gln)] (cyclo(RR[d2Nal]R[Phe(4-F)]RWR[dA]Q)), the “anti-proliferative activity against lung cancer cells (in words)” value with H1299 lung cancer cells was “weak anti-proliferative activity”. Also, in the data set on A549 lung cancer cells, the “cell permeability / intracellular fluorescence” value is on record as “cell permeable”.
For the molecule `CC[C@@H]1NC(=O)[C@@H](Cc2ccccc2)NC(=O)[C@H](Cc2ccc(F)cc2)NC(=O)[C@@H](CC(N)=O)NC(=O)[C@H](Cc2ccc(F)cc2)NC(=O)[C@H](CCCNC(=N)N)NC(=O)[C@@H](Cc2ccc3ccccc3c2)NC(=O)[C@H](CCCNC(=N)N)NC(=O)[C@H](CCCNC(=N)N)NC(=O)[C@H](CCC(=O)N[C@@H](CCCCNC(=S)Nc2ccc3c(c2)C(=O)OC32c3ccc(O)cc3Oc3cc(O)ccc32)C(N)=O)NC1=O` [Cyclorasin 13A] (cyclo([Abu]E(Lys(5-FITC)NH2)RR[d2Nal]R[Phe(4-F)][dN][Phe(4-F)][dF])), the Kd at K-Ras(G12V) was 1 ± 0.2 µM.
For the molecule `CCCC[C@H]1NC(=O)[C@H](Cc2ccc(F)cc2)NC(=O)[C@H](CCCNC(=N)N)NC(=O)[C@@H](Cc2ccc3ccccc3c2)NC(=O)[C@H](CCCCNC(=S)Nc2ccc3c(c2)C(=O)OC32c3ccc(O)cc3Oc3cc(O)ccc32)NC(=O)[C@H](CCCNC(=N)N)NC(=O)[C@H](CCCNC(=N)N)NC(=O)[C@@H](C)NC(=O)[C@H]([C@@H](C)O)NC(=O)[C@H](Cc2c[nH]c3ccccc23)NC(=O)[C@H](CCC(N)=O)NC1=O` [FITC-9A5] (cyclo(K(FITC)[d2Nal]R[Phe(4-F)][dNle]QWT[dA]RR)), the Kd at H-Ras(WT) is 500 nM; on bovine serum albumin it was 30000 nM and 31000 nM; on Rac1, 250 nM; on RhoA, 180 nM; on Ras-GTP, 440 nM; at Ras-GPPNP, 640 nM. On Ras-GDP, binding was characterised by a dissociation constant (Kd) of 2500 nM. In addition, in the data set with A549 lung cancer cells, the “cell permeability / intracellular fluorescence” value is reported as “intense, defuse fluorescence throughout the cytoplasm”.
